Measured values as given in the NIST ThermoML archive (doi:10.1016/j.jct.2006.05.008).

Test: molar heat capacity at constant pressure
Details: 101.33 kPa

CCC[n+]1ccn(C)c1.[Br-] [1-methyl-3-propylimidazolium bromide]
Details	molar heat capacity at constant pressure [J/K/mol]
146.32 K, Glass, Small (less than 1 g) adiabatic calorimetry	140.69
146.55 K, Crystal, Vacuum adiabatic calorimetry	133.11
146.9 K, Crystal, Vacuum adiabatic calorimetry	133.3
147.92 K, Crystal, Vacuum adiabatic calorimetry	133.83
148.32 K, Metastable crystal, Small (less than 1 g) adiabatic calorimetry	137.4
148.96 K, Crystal, Vacuum adiabatic calorimetry	134.32
149.12 K, Glass, Small (less than 1 g) adiabatic calorimetry	142.33
149.3 K, Crystal, Vacuum adiabatic calorimetry	134.52
150.68 K, Crystal, Vacuum adiabatic calorimetry	135.21
150.83 K, Metastable crystal, Small (less than 1 g) adiabatic calorimetry	138.65
151.02 K, Crystal, Vacuum adiabatic calorimetry	135.37
151.92 K, Glass, Small (less than 1 g) adiabatic calorimetry	143.94
152.06 K, Crystal, Vacuum adiabatic calorimetry	135.89
153.09 K, Crystal, Vacuum adiabatic calorimetry	136.42
153.33 K, Metastable crystal, Small (less than 1 g) adiabatic calorimetry	139.92
153.43 K, Crystal, Vacuum adiabatic calorimetry	136.63
153.5 K, Glass, Small (less than 1 g) adiabatic calorimetry	144.83
154.73 K, Glass, Small (less than 1 g) adiabatic calorimetry	145.57
154.81 K, Crystal, Vacuum adiabatic calorimetry	137.37
155.15 K, Crystal, Vacuum adiabatic calorimetry	137.48
155.84 K, Metastable crystal, Small (less than 1 g) adiabatic calorimetry	141.25
155.92 K, Glass, Small (less than 1 g) adiabatic calorimetry	146.2
156.19 K, Crystal, Vacuum adiabatic calorimetry	138.07
157.22 K, Crystal, Vacuum adiabatic calorimetry	138.55
157.53 K, Glass, Small (less than 1 g) adiabatic calorimetry	147.21
157.57 K, Crystal, Vacuum adiabatic calorimetry	138.81
158.35 K, Metastable crystal, Small (less than 1 g) adiabatic calorimetry	142.5
158.39 K, Glass, Small (less than 1 g) adiabatic calorimetry	147.68
158.74 K, Metastable crystal, Small (less than 1 g) adiabatic calorimetry	142.49
158.95 K, Crystal, Vacuum adiabatic calorimetry	139.5
159.29 K, Crystal, Vacuum adiabatic calorimetry	139.64
160.32 K, Crystal, Vacuum adiabatic calorimetry	140.24
160.34 K, Glass, Small (less than 1 g) adiabatic calorimetry	148.83
160.85 K, Glass, Small (less than 1 g) adiabatic calorimetry	149.02
160.86 K, Metastable crystal, Small (less than 1 g) adiabatic calorimetry	143.76
161.31 K, Metastable crystal, Small (less than 1 g) adiabatic calorimetry	143.83
161.35 K, Crystal, Vacuum adiabatic calorimetry	140.75
161.7 K, Crystal, Vacuum adiabatic calorimetry	141.04
163.07 K, Crystal, Vacuum adiabatic calorimetry	141.95
163.14 K, Glass, Small (less than 1 g) adiabatic calorimetry	150.42
163.31 K, Glass, Small (less than 1 g) adiabatic calorimetry	150.41
163.36 K, Metastable crystal, Small (less than 1 g) adiabatic calorimetry	145.06
163.42 K, Crystal, Vacuum adiabatic calorimetry	142.16
163.82 K, Metastable crystal, Small (less than 1 g) adiabatic calorimetry	145.08
164.45 K, Crystal, Vacuum adiabatic calorimetry	143.11
165.48 K, Crystal, Vacuum adiabatic calorimetry	144.27
165.77 K, Glass, Small (less than 1 g) adiabatic calorimetry	151.85
165.82 K, Crystal, Vacuum adiabatic calorimetry	145.11
165.87 K, Metastable crystal, Small (less than 1 g) adiabatic calorimetry	146.32
165.96 K, Glass, Small (less than 1 g) adiabatic calorimetry	152.04
166.33 K, Metastable crystal, Small (less than 1 g) adiabatic calorimetry	146.42
167.19 K, Crystal, Vacuum adiabatic calorimetry	146.62
167.53 K, Crystal, Vacuum adiabatic calorimetry	147.09
168.23 K, Glass, Small (less than 1 g) adiabatic calorimetry	153.27
168.38 K, Metastable crystal, Small (less than 1 g) adiabatic calorimetry	147.66
168.56 K, Crystal, Vacuum adiabatic calorimetry	147.58
168.77 K, Glass, Small (less than 1 g) adiabatic calorimetry	153.64
168.85 K, Metastable crystal, Small (less than 1 g) adiabatic calorimetry	147.67
169.59 K, Crystal, Vacuum adiabatic calorimetry	148.31
169.93 K, Crystal, Vacuum adiabatic calorimetry	148.36
170.69 K, Glass, Small (less than 1 g) adiabatic calorimetry	154.76
170.88 K, Metastable crystal, Small (less than 1 g) adiabatic calorimetry	149.09
171.3 K, Crystal, Vacuum adiabatic calorimetry	149.09
171.36 K, Metastable crystal, Small (less than 1 g) adiabatic calorimetry	149.04
171.57 K, Glass, Small (less than 1 g) adiabatic calorimetry	155.3
171.66 K, Crystal, Vacuum adiabatic calorimetry	149.38
172.67 K, Crystal, Vacuum adiabatic calorimetry	149.83
